Experimental data reported in patent US20100234372A1, “SUBSTITUTED 2-MERCAPTOQUINOLINE-3-CARBOXAMIDES AS KCNQ2/3 MODULATORS” (GRUNENTHAL GMBH, priority 2009, published 2010).
pEC50: −log10 of the molar value.

Molecular target: T1, KCNQ2/3 channels (Homo sapiens, UniProt O43525+O43526)
T1 construct: expressed in transfected cells; host or cells: CHO-K1 cells
Assay: Fluorescence assay using a voltage-sensitive dye (fluorimetry)
Format: cell-based
Settings: for pEC50: CHO-K1 cells expressing KCNQ2/3 channels; for Emax at 1 µM: 50 μM retigabine = 100%, CHO-K1 cells expressing KCNQ2/3, read-out: Fluorimetry % efficacy at 1 μM (50 μM retigabine = 100%)
Method: […] CHO-K1 cells expressing KCNQ2/3 channels are cultivated adherently at 37° C., 5% CO2 and 95% humidity in cell culture bottles (e.g. 80 cm^2 TC flasks, Nunc) with DMEM-high glucose (Sigma Aldrich, D7777) including 10% FCS (PAN Biotech, e.g. 3302-P270521) or alternatively MEM Alpha Medium (1×, liquid, Invitrogen, #22571), 10% foetal calf serum (FCS) (Invitrogen, #10270-106, heat-inactivated) and the necessary selection antibiotics.
Before being seeded out for the measurements, the cells are washed with a 1×DPBS buffer without Ca^2+/Mg^2+ (e.g. Invitrogen, #14190-094) and detached from the bottom of the culture vessel by means of Accutase (PAA Laboratories, #L11-007) (incubation with Accutase for 15 min at 37° C.). The cell count then present is determined using a CASY™ cell counter (TCC model, Scharfe System) in order subsequently to apply 20,000 to 30,000 cells/well/100 μl of the described nutrient medium, depending on density optimisation for the individual cell line, to 96-well measuring plates of the Corning™ CeIIBIND™ type (flat clear-bottom black polystyrene microplates, #3340). Incubation is then carried out for one hour at room temperature, without gassing or adjusting the humidity, followed by incubation for 24 hours at 37° C., 5% CO2 and 95% humidity.
The voltage-sensitive fluorescent dye from the Membrane Potential Assay Kit (Red™ bulk format part R8123 for FLIPR, MDS Analytical Technologies™) is prepared by dissolving the contents of a vessel of Membrane Potential Assay Kit Red Component A in 200 ml of extracellular buffer (ES buffer, 120 mM NaCl, 1 mM KCl, 10 mM HEPES, 2 mM CaCl2, 2 mM MgCl2, 10 mM glucose; pH 7.4). After removal of the nutrient medium, the cells are washed with 200 μl of ES buffer, then covered with a layer of 100 μl of the dye solution prepared above and incubated for 45 min at room temperature with exclusion of light.
The fluorescence measurements are carried out with a BMG Labtech FLUOstar™, BMG Labtech NOVOstar™ or BMG Labtech POLARstar™ instrument (525 nm excitation, 560 nm emission, bottom-read mode). After incubation of the dye, 50 μl of the substances to be tested in the desired concentrations, or 50 μl of ES buffer for control purposes, are introduced into separate cavities of the measuring plate and incubated for 30 min at room temperature whilst being shielded from light. The fluorescence intensity of the dye is then measured for 5 min and the fluorescence value F1 of each well is thus determined at a given, constant time. 15 μl of a […] KCl solution ([…]) are then added to each well. The change in fluorescence is subsequently measured until all relevant measured values have been obtained (mainly 5-30 min). At a given time after KCl application, a fluorescence value F2 is determined, in this case at the time of the fluorescence peak.
For calculation, the fluorescence intensity F2 is compared with the fluorescence intensity F1, and the agonistic activity of the target compound on the potassium channel is determined therefrom. F2 and F1 are calculated as follows: […]
is determined by adding to the reaction batch only the buffer solution instead of the substance to be tested, determining the value F1K of the fluorescence intensity, adding the potassium ions as described above and measuring a value F2K of the fluorescence intensity. Then F2K and F1K are calculated as follows: […]
Calculations of EC50 values are carried out with the aid of Prism v4.0 software (GraphPad Software™).

Row | pEC50 | Emax at 1 µM [%] | Structure (SMILES)
1 | 6.13 | 143 | CCCCCSc1nc2ccccc2cc1C(=O)NCc1cccs1 [compound 1, 2-(Pentylthio)-N-(2-thienylmethyl)-3-quinoline carboxamide]
2 |  | 26 | COC(=O)CCSc1nc2ccccc2cc1C(=O)NCc1cccs1 [compound 2, 3-{[3-[Oxo-(2-thienylmethylamino)methyl]-2-quinolyl]thio}propanoic acid methyl ester]
3 | 5.71 | 77 | O=C(NCc1cccs1)c1cc2ccccc2nc1SCCCC1CCCCC1 [compound 3]
4 | 6.84 | 168 | O=C(NCc1cccs1)c1cc2ccccc2nc1SCCCc1ccccc1 [compound 4]
5 | 5.58 | 98 | O=C(NCc1cccs1)c1cc2ccccc2nc1SCCS(=O)(=O)c1ccccc1 [compound 5, 2-[2-(Phenylsulfonyl)ethylthio]-N-(2-thienyl-methyl)-3-quinoline carboxamide]
6 | 5.91 | 111 | O=C(NCc1cccs1)c1cc2ccccc2nc1SCCCc1ccc(F)cc1 [compound 6]
7 | 5.87 |  | CCSc1nc2ccccc2cc1C(=O)NCc1cccs1 [compound 7, 2-(Ethylthio)-N-(2-thienylmethyl)-3-quinoline carboxamide]
8 |  | 46 | O=C(NCc1cccs1)c1cc2cc(C(F)(F)F)ccc2nc1SCCS(=O)(=O)c1ccccc1 [compound 8, 2-[2-(Phenylsulfonyl)ethylthio]-N-(2-thienyl-methyl)-6-(trifluoromethyl)-3-quinoline carboxamide]
9 |  | 26 | O=C(NCc1cccs1)c1cc2ccc(C(F)(F)F)cc2nc1SCCS(=O)(=O)c1ccccc1 [compound 9]
10 |  | 9 | O=C(NCc1cccs1)c1cc2c(C(F)(F)F)cccc2nc1SCCS(=O)(=O)c1ccccc1 [compound 10]
11 |  | 41 | CCCCCSc1nc2ccc(C(F)(F)F)cc2cc1C(=O)NCc1cccs1 [compound 11, 2-(Pentylthio)-N-(2-thienylmethyl)-6-(trifluoromethyl)-3-quinoline carboxamide]
12 | 6.39 | 155 | CCSc1nc2ccc(C(F)(F)F)cc2cc1C(=O)NCc1cccs1 [compound 12]
13 | 6.00 | 136 | O=C(NCc1cccs1)c1cc2ccccc2nc1SCCS(=O)(=O)c1cccc(C(F)(F)F)c1 [compound 13, N-(2-Thienylmethyl)-2-[2-[3-(trifluoromethyl)-phenyl]sulfonylethylthio]-3-quinoline carboxamide]
14 | 6.11 | 145 | CCCCCSc1nc2cc(C(F)(F)F)ccc2cc1C(=O)NCc1cccs1 [compound 15]
15 | 7.11 | 164 | O=C(NCc1cccs1)c1cc2ccccc2nc1SCCS(=O)(=O)c1ccc(F)cc1 [compound 16]
16 |  | 77 | Cc1ccc(S(=O)(=O)CCSc2nc3ccccc3cc2C(=O)NCc2cccs2)cc1 [compound 17]
17 |  | 72 | Cc1ccc(SCCSc2nc3ccccc3cc2C(=O)NCc2cccs2)cc1 [compound 18]
18 | 6.78 | 71 | O=C(NCC1CCCCC1)c1cc2ccccc2nc1SCCS(=O)(=O)c1ccccc1 [compound 19]
19 |  | 64 | Cc1ccc(CCCSc2nc3ccccc3cc2C(=O)NCc2cccs2)cc1 [compound 20]
20 | 6.92 | 30 | O=C(NCc1cccs1)c1cc2ccccc2nc1SCCSc1ccccc1 [compound 21]
21 |  | 15 | O=C(NCCC1CCCCC1)c1cc2ccccc2nc1SCCS(=O)(=O)c1ccccc1 [compound 22]
22 |  | 14 | CC(C)(C)CCNC(=O)c1cc2ccccc2nc1SCCS(=O)(=O)c1ccccc1 [compound 23]
23 |  | 27 | O=C(NCc1cccs1)c1cc2ccccc2nc1SCCSc1ccc(F)cc1 [compound 24]
24 |  | 8 | CCSc1nc2cc(C(F)(F)F)ccc2c(C)c1C(=O)NCCC(C)(C)C [compound 25]
25 |  | 47 | CCSc1nc2cc(C(F)(F)F)ccc2c(C)c1C(=O)NCC(C)(C)C [compound 28]

Row | pEC50 | Emax at 1 µM [%] | Structure (SMILES)
26 | 6.44 | 86 | CCSc1nc2cc(C(F)(F)F)ccc2c(C)c1C(=O)NCC1CCCCCC1 [compound 29]
27 | 6.84 | 159 | CCSc1nc2cc(C(F)(F)F)ccc2c(C)c1C(=O)NCc1ccc(F)c(F)c1 [compound 31]
28 | 7.23 | 70 | CCSc1nc2cc(C(F)(F)F)ccc2c(C)c1C(=O)NCc1ccc(F)cc1F [compound 32]
29 | 6.85 | 162 | CCSc1nc2cc(C(F)(F)F)ccc2c(C)c1C(=O)NCc1cc(F)c(F)c(F)c1 [compound 33]
30 | 7.01 | 72 | CCSc1nc2cc(C(F)(F)F)ccc2c(C)c1C(=O)NCc1cc(F)c(F)cc1F [compound 34]
31 | 5.58 | 142 | CCSc1nc2cc(C(F)(F)F)ccc2c(C)c1C(=O)NCc1ccncc1 [compound 35]
32 | 6.87 | 93 | CCSc1nc2cc(C(F)(F)F)ccc2c(C)c1C(=O)NCc1ccc(C(C)(C)C)cc1 [compound 36]
33 | 7.12 | 142 | CCSc1nc2cc(C(F)(F)F)ccc2c(C)c1C(=O)NCc1cccc(C(F)(F)F)c1 [compound 38]
34 | 6.33 | 48 | CCSc1nc2cc(C(F)(F)F)ccc2c(C)c1C(=O)NCCc1ccccc1 [compound 39]
35 | 6.71 | 152 | CCSc1nc2cc(C(F)(F)F)ccc2c(C)c1C(=O)NCCCc1ccccc1 [compound 40]
36 | 5.96 | 121 | CCSc1nc2cc(C(F)(F)F)ccc2c(C)c1C(=O)NCc1ccccn1 [compound 41]
37 | 6.80 | 77 | CCSc1nc2cc(C(F)(F)F)ccc2c(C)c1C(=O)NCc1ccc2ccccc2c1 [compound 43]
38 | 6.23 | 169 | CCSc1nc2cc(C(F)(F)F)ccc2c(C)c1C(=O)NCc1nccs1 [compound 44]
39 |  | 23 | CCSc1nc2cc(C(F)(F)F)ccc2c(C)c1C(=O)NCc1nnco1 [compound 45]
40 | 6.85 | 155 | CCCSc1nc2cc(C(F)(F)F)ccc2c(C)c1C(=O)NCc1cccc(F)c1 [compound 46]
41 | 7.14 | 152 | Cc1c(C(=O)NCc2cccc(F)c2)c(SC(C)C)nc2cc(C(F)(F)F)ccc12 [compound 47]
42 | 7.25 | 133 | Cc1c(C(=O)NCc2cccc(F)c2)c(SC2CCCC2)nc2cc(C(F)(F)F)ccc12 [compound 48]
43 | 7.13 | 151 | CCCCSc1nc2cc(C(F)(F)F)ccc2c(C)c1C(=O)NCc1cccc(F)c1 [compound 49]
44 | 7.21 | 150 | CCCCCSc1nc2cc(C(F)(F)F)ccc2c(C)c1C(=O)NCc1cccc(F)c1 [compound 50]
45 | 7.43 | 158 | CCC(C)Sc1nc2cc(C(F)(F)F)ccc2c(C)c1C(=O)NCc1cccc(F)c1 (centres unmarked) [compound 51]
46 | 7.19 | 102 | Cc1c(C(=O)NCc2cccc(F)c2)c(SC2CCCCC2)nc2cc(C(F)(F)F)ccc12 [compound 52]
47 | 6.59 | 73 | CCSc1nc2cc(C(F)(F)F)ccc2c(C)c1C(=O)NCCC1CCCC1 [compound 53]
48 | 6.79 | 229 | CCSc1nc2cc(C(F)(F)F)ccc2c(C)c1C(=O)NCCCC1CCCC1 [compound 54]
49 | 6.83 | 167 | CCSc1nc2cc(C(F)(F)F)ccc2c(C)c1C(=O)NCc1ccc(C(F)(F)F)cc1 [compound 55]
